For assay [1], the target named is T1, human norepinephrine transporter (Homo sapiens, UniProt P23975).
T1 construct: host or cells: HEK-293
In words: hNET receptor binding ([125I]-RTI-55 radioligand binding). The note with it: membranes of HEK-293 cells transfected with human norepinephrine transporter, IC50 converted to Ki by Cheng-Prusoff, read-out: hNET (Ki). The text has this:
(§1) The ability of the compounds of this invention to bind to the hNET and serotonin SERT receptor can be determined using conventional radiolig and receptor binding assays. The receptors can be heterologously expressed in cell lines and experiments conducted in membrane preparations from the cell lines using procedures outlined below. IC50 concentrations can be determined by nonlinear regression of concentration-dependent reduction in specific binding. The Cheng-Prussoff equation can be used to convert the IC50 to Ki concentrations.
Cell pastes of HEK-293 cells transfected with the human norepinephrine transporter were supplied by the Pfizer Ann Arbor Protein Expression and Production group. […] Aliquots of membranes (5 mg/ml protein) were stored in liquid nitrogen until used.
The reaction was incubated by gentle agitation for 90 min at room temperature and was terminated by filtration through Whatman GF/C filter plates using a Brandel 96-well plate harvester. […] Test compounds were run in duplicate, and specific binding was defined as the difference between binding in the presence and absence of 10 μM desipramine.
(§2) Excel and GraphPad Prism software were used for data calculation and analysis. IC50 values were converted to Ki values using the Cheng-Prusoff equation.

Assay [2] has as its target T2, human seritonin transporter (Homo sapiens, UniProt P31645).
T2 construct: host or cells: HEK-293
The experiment in a line: hSERT receptor binding ([125I]-RTI-55 radioligand binding). To be noted: membranes of HEK-293 cells transfected with human seritonin transporter, IC50 converted to Ki by Cheng-Prusoff, read-out: SERT (Ki).
Excerpt: as §1
Cell pastes of HEK-293 cells transfected with the human seritonin transporter were supplied by the Pfizer Ann Arbor Protein Expression and Production group. […] Aliquots of membranes (5 mg/ml protein) were stored in liquid nitrogen until used.
The reaction was incubated by gentle agitation for 90 min at room temperature and was terminated by filtration through Whatman GF/C filter plates using a Brandel 96-well plate harvester. […] Test compounds were run in duplicate, and specific binding was defined as the difference between binding in the presence and absence of […] citalopram.
as §2

Broadly, the Ki is the equilibrium dissociation constant of an inhibitor or competing ligand from its target.

Structures are written as SMILES.

T1 sequence (P23975 whole entry): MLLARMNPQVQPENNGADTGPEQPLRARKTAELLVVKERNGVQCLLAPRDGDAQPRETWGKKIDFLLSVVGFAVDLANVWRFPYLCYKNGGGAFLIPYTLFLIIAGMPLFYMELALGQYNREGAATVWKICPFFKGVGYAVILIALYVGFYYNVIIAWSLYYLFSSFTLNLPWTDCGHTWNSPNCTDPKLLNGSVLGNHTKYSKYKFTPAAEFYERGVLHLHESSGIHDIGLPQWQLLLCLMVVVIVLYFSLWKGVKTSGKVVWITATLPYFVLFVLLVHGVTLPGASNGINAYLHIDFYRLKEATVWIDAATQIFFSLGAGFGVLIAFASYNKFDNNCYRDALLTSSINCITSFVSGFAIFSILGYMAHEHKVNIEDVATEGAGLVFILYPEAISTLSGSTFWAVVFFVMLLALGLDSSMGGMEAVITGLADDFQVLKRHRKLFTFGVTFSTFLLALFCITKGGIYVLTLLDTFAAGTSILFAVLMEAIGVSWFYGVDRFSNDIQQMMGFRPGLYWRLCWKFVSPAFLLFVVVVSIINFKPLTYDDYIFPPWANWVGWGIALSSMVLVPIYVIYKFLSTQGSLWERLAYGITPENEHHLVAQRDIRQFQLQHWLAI
T2 sequence (P31645 whole entry): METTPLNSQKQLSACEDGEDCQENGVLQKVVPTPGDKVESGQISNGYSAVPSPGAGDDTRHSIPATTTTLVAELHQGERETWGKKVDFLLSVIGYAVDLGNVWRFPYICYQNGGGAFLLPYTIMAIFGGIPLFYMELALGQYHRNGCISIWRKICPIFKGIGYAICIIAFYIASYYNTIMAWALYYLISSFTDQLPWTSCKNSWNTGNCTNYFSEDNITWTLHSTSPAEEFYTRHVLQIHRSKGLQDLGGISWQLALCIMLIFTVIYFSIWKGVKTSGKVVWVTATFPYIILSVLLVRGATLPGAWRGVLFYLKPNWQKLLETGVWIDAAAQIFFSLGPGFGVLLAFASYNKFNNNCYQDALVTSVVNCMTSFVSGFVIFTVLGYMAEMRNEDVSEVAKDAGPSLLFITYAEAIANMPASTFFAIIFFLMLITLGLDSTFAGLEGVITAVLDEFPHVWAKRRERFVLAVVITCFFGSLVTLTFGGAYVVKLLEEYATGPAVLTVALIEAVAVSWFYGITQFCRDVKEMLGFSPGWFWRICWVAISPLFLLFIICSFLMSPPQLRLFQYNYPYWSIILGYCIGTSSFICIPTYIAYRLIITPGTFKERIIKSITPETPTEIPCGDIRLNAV

As to `CCOc1ccccc1OC(C1CC1)[C@@H]1CNCCO1` (stereo partly drawn) [Example 118, (2S)-2-[cyclopropyl(2-ethoxyphenoxy)methyl]morpholine], the Ki in assay [1] was 1140 nM; in assay [2], at least 10000 nM. The corresponding values for `Fc1cccc(F)c1OC(c1ncco1)[C@@H]1CNCCO1` (mixture of isomers) [Example 196, (S)-2-[(2,6-difluorophenoxy)(1,3-oxazol-2-yl)methyl]morpholine] are 9 nM and at least 10000 nM. The like results for `COc1cccc([C@H](Oc2c(F)cccc2Br)[C@@H]2CNCCO2)n1` [Example 185, (2S)-2-[(S)-(2-bromo-6-fluorophenoxy)(6-methoxypyridin-2-yl)methyl]morpholine] were, in that order, 8 nM and 201 nM. Regarding `CC(Oc1ccccc1Oc1ccc(F)cc1)[C@@H]1CNCCO1` (stereo partly drawn) [Example 151, (2S)-2-{1-[2-(4-fluorophenoxy)phenoxy]ethyl}morpholine], the Ki in assay [1] came to 4 nM; in assay [2], 3290 nM. On to `c1ccc([C@H](Oc2cccnc2)[C@@H]2CNCCO2)cc1` [Example 40, (S)-2-[(S)-Phenyl-(pyridin-3-yloxy)-methyl]-morpholine], for which the Ki in assay [1] is 317 nM; in assay [2], 828 nM. As to `Cc1ccccc1-c1ccccc1OCC1CNCCO1` (racemic) [Example 88, 2-(2′-Methyl-biphenyl-2-yloxymethyl)-morpholine], the Ki is 633 nM in assay [1] and at least 10000 nM in assay [2]. The like results for `Fc1ccc(-c2ncccc2O[C@@H](c2ccccc2)[C@@H]2CNCCO2)cc1` [Example 33, (S)-2-{(S)-[2-(4-Fluoro-phenyl)-pyridin-3-yloxy]-phenyl-methyl}-morpholine] were, in that order, 22 nM and 2410 nM.

Consider `c1ccc(COc2ccccc2O[C@@H](c2ccccc2)[C@@H]2CNCCO2)cc1` [Example 83, (S)-2-[(S)-(2-Benzyloxy-phenoxy)-phenyl-methyl]-morpholine], for which the Ki in assay [1] stood at 3.9 nM; in assay [2] it was 3120 nM. The like results for `Fc1cccc(F)c1OC(c1cccc2c1OCC2)[C@@H]1CNCCO1` (stereo partly drawn) [Example 163, (2S)-2-[(2,6-difluorophenoxy)(2,3-dihydro-1-benzofuran-7-yl)methyl]morpholine] were, in that order, 13 nM and 446 nM. Turning to `Cc1ccc(-c2ncccc2O[C@@H](c2ccccc2)[C@@H]2CNCCO2)cc1` [Example 42, (S)-2-[(S)-Phenyl-(2-p-tolyl-pyridin-3-yloxy)-methyl]-morpholine], the figures for the Ki in assay [1] and in assay [2] were 68 nM and 4940 nM, respectively. With `Fc1ccc(Oc2ncccc2O[C@@H](c2ccccc2)[C@@H]2CNCCO2)cc1` [Example 116, (2S)-2-[(S)-{[2-(4-fluorophenoxy)pyridin-3-yl]oxy}(phenyl)methyl]morpholine], the Ki in assay [1] amounted to 63 nM; in assay [2], 1330 nM.

`Fc1ccc(F)c(O[C@@H](c2ccccc2)[C@@H]2CNCCO2)c1` [Example 96, (2S)-2-[(S)-(2,5-difluorophenoxy)(phenyl)methyl]morpholine]: the inhibitory constant (Ki) in assay [1] was 12 nM; in assay [2], 4450 nM. The corresponding values for `CCOc1ccccc1O[C@H](c1cccnc1)[C@@H]1CNCCO1` (single isomer, unassigned) [Example 25] are 124 nM and at least 10000 nM. Take `COCc1ccccc1O[C@@H](c1ccccc1)[C@@H]1CNCCO1` [Example 7, (S)-2-[(S)-(2-Methoxymethyl-phenoxy)-phenyl-methyl]-morpholine]: the Ki in assay [1] was 17 nM; in assay [2], 6610 nM. Consider `FC(F)(F)Oc1ccccc1O[C@@H](c1ccccc1)[C@@H]1CNCCO1` [Example 1, (S)-2-[(S)-Phenyl-(2-trifluoromethoxy-phenoxy)-methyl]-morpholine], for which the figures for the Ki in assay [1] and in assay [2] were 9.9 nM and 3940 nM, respectively. Take `N#Cc1ccccc1O[C@@H](c1ccccn1)[C@@H]1CNCCO1` [Example 22 (2S, 3S), (2S,3S)-2-(Morpholin-2-yl-pyridin-2-yl-methoxy)-benzonitrile]: the Ki in assay [1] was determined as 12 nM.

For the origin of these results see US7659394B2 (Pfizer Inc, priority 2004, dated 2010).
